target: Recombinant human factor D (Homo sapiens, UniProt P00746); assay: Human Complement Factor D Assay: Method 1; format: biochemical; conditions: Factor D inhibition, 10 nM factor D, Z-Lys-thiobenzyl substrate, fluorescence readout
Experimental: Human Complement Factor D Assay: Method 1 Recombinant human factor D (expressed in E. coli and purified using standard methods) at 10 nM concentration is incubated with test compound at various concentrations for 1 hour at room temperature in 0.1 M Hepes buffer, pH 7.5, containing 1 mM MgCl2, 1 M NaCl and 0.05% CHAPS. […] The increase in fluorescence is recorded at excitation of 485 nm and emission at 535 nm in a microplate spectrofluorimeter. IC50 values are calculated from percentage of inhibition of complement factor D-activity as a function of test compound concentration.

Chain of Recombinant human factor D (P00746 26-253): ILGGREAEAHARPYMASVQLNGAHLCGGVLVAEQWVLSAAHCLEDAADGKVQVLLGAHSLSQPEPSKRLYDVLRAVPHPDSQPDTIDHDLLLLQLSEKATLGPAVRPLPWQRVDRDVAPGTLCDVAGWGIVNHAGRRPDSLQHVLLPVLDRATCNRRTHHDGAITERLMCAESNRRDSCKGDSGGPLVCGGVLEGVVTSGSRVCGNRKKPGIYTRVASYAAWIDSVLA

Row | SMILES | IC50 [nM]
1 | Cc1cc2c(C(N)=O)nn(CC(=O)N3[C@@H]4C[C@@H]4C[C@H]3C(=O)Nc3cccc(C(F)(F)F)n3)c2c(C)n1 [Example 29, 5,7-dimethyl-1-(2-oxo-2-((1R,3S,5R)-3-((6-(trifluoromethyl)pyridin-2-yl)carbamoyl)-2-azabicyclo[3.1.0]hexan-2-yl)ethyl)-1H-pyrazolo[3,4-c]pyridine-3-carboxamide] | 6
2 | Cc1cc2c(C(N)=O)nn(CC(=O)N3[C@@H]4C[C@@H]4C[C@H]3C(=O)Nc3cncc(C(F)(F)F)n3)c2c(C)n1 [Example 30, 5,7-dimethyl-1-(2-oxo-2-((1R,3S,5R)-3-((6-(trifluoromethyl)pyrazin-2-yl)carbamoyl)-2-azabicyclo[3.1.0]hexan-2-yl)ethyl)-1H-pyrazolo[3,4-c]pyridine-3-carboxamide] | 80
3 | NC(=O)n1cc(NC(=O)N2[C@@H]3C[C@@H]3C[C@H]2C(=O)Nc2cncc(Br)n2)c2ccccc21 [Example 31, (1R,3S,5R)-2-Aza-bicyclo[3.1.0]hexane-2,3-dicarboxylic acid 3-[(6-bromo-pyrazin-2-yl)-amide]2-[(1-carbamoyl-1H-indol-3-yl)-amide]] | 4
4 | Cc1ncc(NC(=O)[C@@H]2C[C@H]3C[C@H]3N2C(=O)Nc2cn(C(N)=O)c3ccccc23)nc1Br [Example 32, (1R,3S,5R)-2-Aza-bicyclo[3.1.0]hexane-2,3-dicarboxylic acid 3-[(6-bromo-5-methyl-pyrazin-2-yl)-amide] 2-[(1-carbamoyl-1H-indol-3-yl)-amide]] | 5
5 | C[C@@]1(F)C[C@@H](C(=O)Nc2cccc(Br)n2)N(C(=O)Nc2cn(C(N)=O)c3ccccc23)C1 [Example 34, (2S,4R)-4-Fluoro-4-methyl-pyrrolidine-1,2-dicarboxylic acid 2-[(6-bromo-pyridin-2-yl)-amide] 1-[(1-carbamoyl-1H-indol-3-yl)-amide]] | 14
6 | NC(=O)n1cc(NC(=O)N2CCC[C@H]2C(=O)Nc2cccc(Br)n2)c2ccccc21 [Example 35, (S)-Pyrrolidine-1,2-dicarboxylic acid 2-[(6-bromo-pyridin-2-yl)-amide]-1-[(1-carbamoyl-1H-indol-3-yl)-amide]] | 20
7 | NC(=O)n1cc(NC(=O)N2[C@@H]3C[C@@H]3C[C@H]2C(=O)Nc2cncc(C(F)(F)F)n2)c2ccccc21 [Example 36, (1R,3S,5R)-2-Aza-bicyclo[3.1.0]hexane-2,3-dicarboxylic acid 2-[(1-carbamoyl-1H-indol-3-yl)-amide] 3-[(6-trifluoromethyl-pyrazin-2-yl)-amide]] | 55
8 | C[C@@]12C[C@@H](C(=O)Nc3cccc(Br)n3)N(C(=O)Nc3cn(C(N)=O)c4ccccc34)[C@@H]1C2 [Example 37, (1R,3S,5R)-5-Methyl-2-aza-bicyclo[3.1.0]hexane-2,3-dicarboxylic acid 3-[(6-bromo-pyridin-2-yl)-amide] 2-[(1-carbamoyl-1H-indol-3-yl)-amide]] | 8
9 | NC(=O)n1cc(NC(=O)N2C[C@H](F)[C@H](F)[C@H]2C(=O)Nc2cccc(Br)n2)c2ccccc21 [Example 38, (2R,3R,4S)-N2-(6-bromopyridin-2-yl)-N1-(1-carbamoyl-1H-indol-3-yl)-3,4-difluoropyrrolidine-1,2-dicarboxamide] | 10
10 | NC(=O)n1cc(NC(=O)N2CCS[C@H]2C(=O)Nc2cccc(Br)n2)c2ccccc21 [Example 39, (S)-N2-(6-bromopyridin-2-yl)-N3-(1-carbamoyl-1H-indol-3-yl)thiazolidine-2,3-dicarboxamide] | 20

From patent publication US20150191462A1, “PYRROLIDINE DERIVATIVES AND THEIR USE AS COMPLEMENT PATHWAY MODULATORS” (priority 2012, published 2015)
